IC50 data for 3 compounds are collected here from paper PMC6259253, “Synthesis of Benzofuran Derivatives via Rearrangement and Their Inhibitory Activity on Acetylcholinesterase” (Molecules, 2010).

As usually defined, the IC50 is the concentration that inhibits the measured activity by half.

T1 sequence (P37136 32-614): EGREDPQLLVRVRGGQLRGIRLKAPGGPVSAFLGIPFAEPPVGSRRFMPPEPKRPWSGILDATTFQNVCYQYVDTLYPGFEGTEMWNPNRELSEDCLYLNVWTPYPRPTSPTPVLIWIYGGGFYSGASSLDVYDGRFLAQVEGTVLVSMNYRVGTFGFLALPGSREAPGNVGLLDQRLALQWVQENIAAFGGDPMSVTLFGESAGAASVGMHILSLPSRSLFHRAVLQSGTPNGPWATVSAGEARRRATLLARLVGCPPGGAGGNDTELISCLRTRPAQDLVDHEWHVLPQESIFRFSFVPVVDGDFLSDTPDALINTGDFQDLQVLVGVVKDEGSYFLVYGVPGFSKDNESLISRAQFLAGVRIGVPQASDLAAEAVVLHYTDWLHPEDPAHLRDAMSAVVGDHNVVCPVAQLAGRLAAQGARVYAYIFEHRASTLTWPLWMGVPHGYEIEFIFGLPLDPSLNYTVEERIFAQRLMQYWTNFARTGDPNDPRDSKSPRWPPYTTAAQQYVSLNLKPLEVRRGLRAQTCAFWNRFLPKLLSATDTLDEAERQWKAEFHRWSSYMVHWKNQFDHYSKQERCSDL

The assay concerns the target T1, AChE (Rattus norvegicus, UniProt P37136).
T1 construct: utilizing freshly prepared AChE from rats brain homogenate; from tissue; host or cells: rat whole brain except cerebellum, homogenate
The assay is described as follows: biochemical. Conditions: AChE from rat brain homogenate; Ellman's method; means ± standard deviation of three independent experiments; read-out: AChE inhibition (IC50). Here is the method:
AChE activity was measured in duplicate by the spectrophotometric method reported by Ellman et al. with some modifications, mainly involving the source of the enzyme and the reference compound. Rat brain homogenate was used as the enzyme source. The whole brain except for the cerebellum was homogenized in nine volumes of 100 mM sodium phosphate buffer (pH 7.0). The test compounds were dissolved in dimethyl sulphoxide (DMSO). The AChE activity was expressed as a change in OD at 412 nm.
For `Cc1ccc(N2CCN(C(=O)c3oc4ccc(C)cc4c3N3CCOCC3)CC2)cc1` [Compound A4, (4-p-Tolylpiperazin-1-yl)-(5-methyl-3-morpholinobenzofuran-2-yl) methanone], the IC50 turned out to be 11 ± 0.2 µM.

For the compound `Cc1ccc2oc(C(=O)N3CCN(c4ccccc4C)CC3)c(N3CCOCC3)c2c1` [Compound A2, (4-o-Tolylpiperazin-1-yl)-(5-methyl-3-morpholinobenzofuran-2-yl) methanone], the IC50 was found to be 32 ± 0.1 µM. The figure for `COc1ccc(N2CCN(C(=O)c3oc4ccc(C)cc4c3N3CCOCC3)CC2)cc1` [Compound A5, (4-(4-Methoxyphenyl)piperazin-1-yl) (5-methyl-3-morpholinobenzofuran-2-yl) methanone] is 21 ± 0.1 µM.
